Assay results from the supplement of paper PMC10627819.

How the values were obtained:
S. aureus DSM 20231 [1] = test: fitness (endpoint OD595 vs no drug) (fraction); higher = more growth
Method in brief: (§1)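 At 37 °C, bacteria in TSB, LB Lennox or CY were grown in 384-well plates from a starting OD595 of 0.01. OD595 was measured every 30 min for 14 h, with the first reading used as background. Fitness is the optical density at the switch to stationary phase as a fraction of the robust mean of no-drug control wells, capped at 1.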

S. aureus Newman [2] = test: as above
Method in brief: as §1

S. pneumoniae D39V [3] = test: as above
Method in brief: as §1

B. subtilis 168 = test: Bliss interaction score (quartile over a dose matrix) (fitness difference); higher = more antagonism (negative = synergy)
Method in brief: (§2)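 Growth was read as OD595 when cultures entered stationary phase, and each value was divided by the plate's robust no-drug mean and capped at 1. This normalised ratio is the fitness value, and fitness for each single drug came from the combination data. The Bliss score subtracts the expected fitness, taken as the product, from the observed fitness and is given as quartiles across technical, biological and donor/recipient replicates.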

S. aureus DSM 20231 [4] = test: as above
Method in brief: as §2

S. aureus Newman [5] = test: as above
Method in brief: as §2

S. pneumoniae D39V [6] = test: as above
Method in brief: as §2
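Throughout, for Bliss interaction score (quartile over a dose matrix): first quartile when negative (synergy) and third quartile when positive (antagonism).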
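Throughout, for fitness (endpoint OD595 vs no drug): OD595 on entry to stationary phase over no-drug wells; at most 1.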

C[C@@H]1O[C@@H]1P(=O)(O)O [Fosfomycin] + Cn1nnc(-c2ccc(-c3ccc(N4C[C@H](CO)OC4=O)cc3F)cn2)n1 [Tedizolid]
fitness
Conditions	partner 0.03125 µg/mL	partner 0.0625 µg/mL	partner 0.125 µg/mL	partner 0.25 µg/mL	partner 0.5 µg/mL
S. aureus DSM 20231 [1], first compound 0.781 µg/mL	–	0.693	0.497	0.091	–
S. aureus DSM 20231 [1], first compound 1.562 µg/mL	–	0.66	0.372	0.0334	–
S. aureus DSM 20231 [1], first compound 3.124 µg/mL	–	0.493	0.202	0.0354	–
S. aureus Newman [2], first compound 0.781 µg/mL	–	0.52	–	–	–
S. aureus Newman [2], first compound 1.562 µg/mL	–	–	–	0.101	–
S. aureus Newman [2], first compound 3.124 µg/mL	–	0.106	0.0423	0.0102	–
S. pneumoniae D39V [3], first compound 1.25 µg/mL	0.951	0.95	0.813	0.43	0.138
S. pneumoniae D39V [3], first compound 2.5 µg/mL	0.936	0.906	0.792	0.455	0.132
S. pneumoniae D39V [3], first compound 5 µg/mL	0.89	0.911	0.783	0.437	0.151

Conditions	Bliss interaction score
B. subtilis 168	0.0967
S. aureus DSM 20231 [4]	0.069
S. aureus Newman [5]	-0.128
S. pneumoniae D39V [6]	0.0919

CO/N=C(\C(=O)N[C@@H]1C(=O)N2C(C(=O)O)=C(COC(C)=O)CS[C@H]12)c1csc(N)n1 [Cefotaxime] + CN[C@H](CC(C)C)C(=O)N[C@H]1C(=O)N[C@@H](CC(N)=O)C(=O)N[C@H]2C(=O)N[C@H]3C(=O)N[C@H](C(=O)N[C@H](C(=O)O)c4cc(O)cc(O)c4-c4cc3ccc4O)[C@H](O)c3ccc(c(Cl)c3)Oc3cc2cc(c3O[C@@H]2O[C@H](CO)[C@@H](O)[C@H](O)[C@H]2O[C@H]2C[C@](C)(N)[C@H](O)[C@H](C)O2)Oc2ccc(cc2Cl)[C@H]1O [Vancomycin]
Conditions	fitness
S. aureus DSM 20231 [1], first compound 0.039 µg/mL, partner 0.1875 µg/mL	0.791
S. aureus DSM 20231 [1], first compound 0.039 µg/mL, partner 0.375 µg/mL	0.78
S. aureus DSM 20231 [1], first compound 0.039 µg/mL, partner 0.75 µg/mL	0.805
S. aureus DSM 20231 [1], first compound 0.078 µg/mL, partner 0.1875 µg/mL	0.715
S. aureus DSM 20231 [1], first compound 0.078 µg/mL, partner 0.375 µg/mL	0.795
S. aureus DSM 20231 [1], first compound 0.078 µg/mL, partner 0.75 µg/mL	0.752
S. aureus DSM 20231 [1], first compound 0.156 µg/mL, partner 0.1875 µg/mL	0.629
S. aureus DSM 20231 [1], first compound 0.156 µg/mL, partner 0.375 µg/mL	0.698
S. aureus DSM 20231 [1], first compound 0.156 µg/mL, partner 0.75 µg/mL	0.772
S. aureus DSM 20231 [1], first compound 0.312 µg/mL, partner 0.1875 µg/mL	0.641
S. aureus DSM 20231 [1], first compound 0.312 µg/mL, partner 0.375 µg/mL	0.733
S. aureus DSM 20231 [1], first compound 0.312 µg/mL, partner 0.75 µg/mL	0.82
S. aureus Newman [2], first compound 0.078 µg/mL, partner 0.1875 µg/mL	0.723
S. aureus Newman [2], first compound 0.078 µg/mL, partner 0.375 µg/mL	0.758
S. aureus Newman [2], first compound 0.078 µg/mL, partner 0.75 µg/mL	0.761
S. aureus Newman [2], first compound 0.156 µg/mL, partner 0.1875 µg/mL	0.62
S. aureus Newman [2], first compound 0.156 µg/mL, partner 0.375 µg/mL	0.648
S. aureus Newman [2], first compound 0.156 µg/mL, partner 0.75 µg/mL	0.614
S. aureus Newman [2], first compound 0.625 µg/mL, partner 0.1875 µg/mL	0.0427
S. aureus Newman [2], first compound 0.625 µg/mL, partner 0.375 µg/mL	0.0413
S. aureus Newman [2], first compound 0.625 µg/mL, partner 0.75 µg/mL	0.0855
S. aureus Newman [2], first compound 1.25 µg/mL, partner 0.1875 µg/mL	0.0418
S. aureus Newman [2], first compound 1.25 µg/mL, partner 0.375 µg/mL	0.0511
S. aureus Newman [2], first compound 1.25 µg/mL, partner 0.75 µg/mL	0.0481
S. aureus Newman [2], first compound 2.5 µg/mL, partner 0.1875 µg/mL	0.036
S. aureus Newman [2], first compound 2.5 µg/mL, partner 0.375 µg/mL	0.0526
S. aureus Newman [2], first compound 2.5 µg/mL, partner 0.75 µg/mL	0.0388
S. pneumoniae D39V [3], first compound 0.0018 µg/mL, partner 0.03125 µg/mL	≥ 1
S. pneumoniae D39V [3], first compound 0.0018 µg/mL, partner 0.0625 µg/mL	0.892
S. pneumoniae D39V [3], first compound 0.0018 µg/mL, partner 0.125 µg/mL	0.907
S. pneumoniae D39V [3], first compound 0.0018 µg/mL, partner 0.25 µg/mL	0.909
S. pneumoniae D39V [3], first compound 0.0018 µg/mL, partner 0.5 µg/mL	0.0621
S. pneumoniae D39V [3], first compound 0.0035 µg/mL, partner 0.03125 µg/mL	0.94
S. pneumoniae D39V [3], first compound 0.0035 µg/mL, partner 0.0625 µg/mL	0.803
S. pneumoniae D39V [3], first compound 0.0035 µg/mL, partner 0.25 µg/mL	0.793
S. pneumoniae D39V [3], first compound 0.0035 µg/mL, partner 0.5 µg/mL	0.047
S. pneumoniae D39V [3], first compound 0.007 µg/mL, partner 0.25 µg/mL	0.257
S. pneumoniae D39V [3], first compound 0.007 µg/mL, partner 0.5 µg/mL	0.0521

fitness, S. aureus Newman [2], one replicate
Conditions	partner 0.1875 µg/mL	partner 0.375 µg/mL	partner 0.75 µg/mL
first compound 0.039 µg/mL	0.732	0.867	0.784
first compound 0.312 µg/mL	0.34	0.353	0.395

Conditions	Bliss interaction score
B. subtilis 168	-0.0945
S. aureus DSM 20231 [4]	-0.0428
S. aureus Newman [5]	-0.0425
S. pneumoniae D39V [6]	-0.084
